Reference: ChEMBL document CHEMBL1201862, “PubChem BioAssay data set” (2004)
The source made the active and inactive calls.

Assays:
[1] = target: Scavenger receptor class B member 1 (Mus musculus, UniProt Q61009); assay: inhibitors of SR-BI mediated HDL lipid uptake, dose response, ldlA[mSR-BI] cells, fluorescence, cherry pick (AID 493194); type: functional, cell-based;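 also: cellular uptake of fluorescent DiI-labeled HDL measured as cell fluorescence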
Hexokinase HKDC1 [2] = target: T1, Hexokinase HKDC1 (Homo sapiens, UniProt Q2TB90); assay: HKDC1 hexokinase inhibitors, dose response, biochemical, W721R variant (AID 504729); type: functional
T1 sequence (Q2TB90 whole entry): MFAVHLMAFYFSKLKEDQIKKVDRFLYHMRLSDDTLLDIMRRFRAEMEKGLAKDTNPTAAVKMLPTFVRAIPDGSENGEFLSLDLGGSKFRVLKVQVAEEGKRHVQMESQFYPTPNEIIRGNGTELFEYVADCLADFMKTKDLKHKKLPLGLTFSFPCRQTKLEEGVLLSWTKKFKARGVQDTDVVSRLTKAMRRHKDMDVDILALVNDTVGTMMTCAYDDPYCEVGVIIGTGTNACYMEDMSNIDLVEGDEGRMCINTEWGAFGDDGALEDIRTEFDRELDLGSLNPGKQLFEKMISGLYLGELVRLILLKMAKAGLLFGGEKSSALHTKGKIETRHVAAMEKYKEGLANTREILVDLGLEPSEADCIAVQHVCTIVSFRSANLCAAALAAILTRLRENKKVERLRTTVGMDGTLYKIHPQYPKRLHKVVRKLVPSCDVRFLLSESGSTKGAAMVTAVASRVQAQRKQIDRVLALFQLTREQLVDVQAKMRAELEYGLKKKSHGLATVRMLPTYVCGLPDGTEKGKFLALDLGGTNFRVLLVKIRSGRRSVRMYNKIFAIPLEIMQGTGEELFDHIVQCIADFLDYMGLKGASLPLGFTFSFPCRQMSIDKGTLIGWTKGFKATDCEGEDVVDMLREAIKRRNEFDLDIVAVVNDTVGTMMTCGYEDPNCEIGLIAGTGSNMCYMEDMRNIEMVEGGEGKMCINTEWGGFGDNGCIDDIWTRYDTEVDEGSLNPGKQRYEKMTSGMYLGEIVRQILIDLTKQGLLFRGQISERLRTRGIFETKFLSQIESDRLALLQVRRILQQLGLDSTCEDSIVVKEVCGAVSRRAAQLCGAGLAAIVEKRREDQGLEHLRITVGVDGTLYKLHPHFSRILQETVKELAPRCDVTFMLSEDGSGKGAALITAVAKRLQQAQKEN

Hexokinase-1 = target: T2, Hexokinase-1 (Homo sapiens, UniProt P19367); assay: SAR analysis of small molecule inhibitors of hexokinase domain containing I (HKDC1) in the hexokinase 1 selectivity assay. [Related pubchem assays (depositor defined):AID493160, AID493190]; type: functional
T2 sequence (P19367 whole entry): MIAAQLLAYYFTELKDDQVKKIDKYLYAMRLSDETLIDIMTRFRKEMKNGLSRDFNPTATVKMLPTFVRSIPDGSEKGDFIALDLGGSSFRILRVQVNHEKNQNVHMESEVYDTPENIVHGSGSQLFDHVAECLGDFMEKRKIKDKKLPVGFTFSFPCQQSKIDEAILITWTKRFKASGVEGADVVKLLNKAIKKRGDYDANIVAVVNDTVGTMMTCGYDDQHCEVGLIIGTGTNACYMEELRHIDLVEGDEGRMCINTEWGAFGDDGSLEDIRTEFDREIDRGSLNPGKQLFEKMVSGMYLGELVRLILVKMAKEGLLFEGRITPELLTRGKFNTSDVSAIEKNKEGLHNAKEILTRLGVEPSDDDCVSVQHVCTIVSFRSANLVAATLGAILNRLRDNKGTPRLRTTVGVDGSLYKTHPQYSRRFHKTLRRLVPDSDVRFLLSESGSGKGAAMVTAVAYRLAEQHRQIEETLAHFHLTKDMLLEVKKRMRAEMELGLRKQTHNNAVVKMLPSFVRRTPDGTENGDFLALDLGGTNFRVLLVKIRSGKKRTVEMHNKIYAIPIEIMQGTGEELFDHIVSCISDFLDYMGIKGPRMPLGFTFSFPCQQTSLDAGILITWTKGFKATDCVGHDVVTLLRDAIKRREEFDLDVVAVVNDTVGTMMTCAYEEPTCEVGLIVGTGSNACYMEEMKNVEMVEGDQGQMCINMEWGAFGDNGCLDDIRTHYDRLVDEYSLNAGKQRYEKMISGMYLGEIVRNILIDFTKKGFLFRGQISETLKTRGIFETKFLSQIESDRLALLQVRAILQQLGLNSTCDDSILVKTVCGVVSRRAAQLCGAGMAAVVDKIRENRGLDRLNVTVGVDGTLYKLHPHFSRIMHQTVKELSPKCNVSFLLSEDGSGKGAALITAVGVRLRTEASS

Hexokinase HKDC1 [3] = target: T1, Hexokinase HKDC1; assay: SAR analysis of small molecule inhibitors of hexokinase domain containing I (HKDC1). [Related pubchem assays (depositor defined):AID493160, AID493190]; type: functional
[4] = target: Dual specificity tyrosine-phosphorylation-regulated kinase 1A (Rattus norvegicus, UniProt Q63470); type: biochemical, Homo sapiens
[5] = target: T3, Long-chain-fatty-acid--AMP ligase FadD28 (Mycobacterium tuberculosis, UniProt P9WQ59); assay: Fluorescence polarization aasay to screen for inhibitors that compete for the binding of FadD28 to a bisubstrate Measured in Biochemical System Using Plate Reader - 2147-01_Inhibitor_Dose_CherryPick_Activity.; type: functional, Mycobacterium tuberculosis H37Rv
T3 sequence (P9WQ59 whole entry): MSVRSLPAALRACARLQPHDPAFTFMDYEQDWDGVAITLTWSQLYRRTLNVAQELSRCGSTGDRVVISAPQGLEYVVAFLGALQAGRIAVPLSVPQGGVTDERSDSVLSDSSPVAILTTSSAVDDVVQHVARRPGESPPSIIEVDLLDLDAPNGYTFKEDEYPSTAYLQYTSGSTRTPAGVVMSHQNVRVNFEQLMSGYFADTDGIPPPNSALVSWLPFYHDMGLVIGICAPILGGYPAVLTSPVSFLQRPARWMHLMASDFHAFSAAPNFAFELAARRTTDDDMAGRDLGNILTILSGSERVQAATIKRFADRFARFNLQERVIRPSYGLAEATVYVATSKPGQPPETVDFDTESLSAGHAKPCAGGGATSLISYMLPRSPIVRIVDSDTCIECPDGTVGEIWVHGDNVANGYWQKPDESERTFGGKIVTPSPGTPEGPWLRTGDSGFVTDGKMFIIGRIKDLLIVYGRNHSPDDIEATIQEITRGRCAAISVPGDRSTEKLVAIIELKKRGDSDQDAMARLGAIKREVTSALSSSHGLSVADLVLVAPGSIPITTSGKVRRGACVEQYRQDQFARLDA

[6] = growth suppression of beta-catenin-knockout colon cells, dose response, cell-based, HCT116, human colon tumor (AID 1045); type: functional;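 also: HCT116 colon tumor cells with beta catenin knocked out; cells exposed to compound for 60 hours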
Fibrinogen beta chain [7] = target: T4, Fibrinogen beta chain (Homo sapiens, UniProt P02675); assay: Fluorescence polarization-based biochemical high throughput dose response assay to identify inhibitors that disrupt the binding of a cyclic peptide (Tn6) to the fibrin proteolytic product D-Dimer and fragment E complex [DD(E )].
Fibrinogen beta chain [8] = target: T4, Fibrinogen beta chain; assay: Fluorescence polarization-based biochemical high throughput dose response assay to identify inhibitors that disrupt the binding of a cyclic peptide (Tn7) to the fibrin proteolytic product D-Dimer and fragment E complex [DD(E )].
[9] = target: T5, RNA-binding protein pos-1 (Caenorhabditis elegans, UniProt G5EF15); assay: inhibitors of POS-1/mex-3 RNA binding, dose response, biochemical, fluorescence polarization (AID 1964);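 also: purified POS-1 fused to maltose binding protein made in E. coli; potency of compounds blocking POS-1 binding to fluorescent RNA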
T5 sequence (G5EF15 whole entry): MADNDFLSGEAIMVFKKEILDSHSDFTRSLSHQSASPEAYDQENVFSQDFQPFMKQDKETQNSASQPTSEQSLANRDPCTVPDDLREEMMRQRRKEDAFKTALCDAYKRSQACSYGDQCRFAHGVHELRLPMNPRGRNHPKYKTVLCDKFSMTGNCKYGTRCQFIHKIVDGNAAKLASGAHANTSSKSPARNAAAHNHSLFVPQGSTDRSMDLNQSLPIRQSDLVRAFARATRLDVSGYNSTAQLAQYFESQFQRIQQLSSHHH

[10] = target: T6, Zinc finger protein mex-5 (Caenorhabditis elegans, UniProt Q9XUB2); assay: MEX-5/TCR-2 RNA interaction inhibitors, dose response, biochemical, C. elegans, fluorescence polarization (AID 1960)
T6 sequence (Q9XUB2 whole entry): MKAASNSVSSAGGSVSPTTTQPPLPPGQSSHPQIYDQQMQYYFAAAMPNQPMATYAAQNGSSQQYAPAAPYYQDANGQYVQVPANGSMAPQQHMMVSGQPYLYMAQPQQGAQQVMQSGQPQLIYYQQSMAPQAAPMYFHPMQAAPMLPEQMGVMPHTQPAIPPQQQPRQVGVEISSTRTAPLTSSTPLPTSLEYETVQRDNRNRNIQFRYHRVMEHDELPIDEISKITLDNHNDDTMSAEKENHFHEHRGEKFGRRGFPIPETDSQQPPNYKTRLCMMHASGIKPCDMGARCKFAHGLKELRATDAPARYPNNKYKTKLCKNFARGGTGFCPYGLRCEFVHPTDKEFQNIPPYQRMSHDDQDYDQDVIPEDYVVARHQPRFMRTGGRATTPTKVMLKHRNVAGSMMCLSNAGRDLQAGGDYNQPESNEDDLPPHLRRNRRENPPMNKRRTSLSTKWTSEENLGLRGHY

Troponin, cardiac muscle = Troponin, cardiac muscle (Homo sapiens, UniProt P19429+P45379+P63316); assay: Fluorescence-based biochemical high throughput dose response assay for activators of the calcium sensitivity of cardiac Regulated Thin Filaments (RTF). [Related pubchem assays (depositor defined):AID493008, AID493018, AID504382, AID504383]; type: protein-complex assay
Keap1/Nrf2 = Keap1/Nrf2 (Homo sapiens, UniProt Q14145); assay: Keap1-Nrf2 protein-protein interaction inhibitors, dose response, biochemical, fluorescence polarization, cherry-picked samples (AID 588683)
ORF 73 = ORF 73 (Human herpesvirus 8, UniProt O40947); assay: inhibitors of C-LANA binding to LBS DNA, dose response, biochemical, fluorescence polarization, cherry-picked samples (AID 504725); set-up: species or system Human gammaherpesvirus 8;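 also: fluorescence polarization of a labeled DNA duplex reporting LANA DNA binding; potency is for inhibitors that block LANA binding to the DNA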
[11] = growth suppression of PTEN-null colon cells, dose response, cell-based, HCT116 PTEN knockout (AID 1047); type: functional;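 also: HCT116 colon tumor cells with PTEN knocked out; cells exposed to compound for 60 hours before readout; potency for loss of cell viability measured by luminescence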

T4 sequence (P02675 whole entry, the tested form may be a part): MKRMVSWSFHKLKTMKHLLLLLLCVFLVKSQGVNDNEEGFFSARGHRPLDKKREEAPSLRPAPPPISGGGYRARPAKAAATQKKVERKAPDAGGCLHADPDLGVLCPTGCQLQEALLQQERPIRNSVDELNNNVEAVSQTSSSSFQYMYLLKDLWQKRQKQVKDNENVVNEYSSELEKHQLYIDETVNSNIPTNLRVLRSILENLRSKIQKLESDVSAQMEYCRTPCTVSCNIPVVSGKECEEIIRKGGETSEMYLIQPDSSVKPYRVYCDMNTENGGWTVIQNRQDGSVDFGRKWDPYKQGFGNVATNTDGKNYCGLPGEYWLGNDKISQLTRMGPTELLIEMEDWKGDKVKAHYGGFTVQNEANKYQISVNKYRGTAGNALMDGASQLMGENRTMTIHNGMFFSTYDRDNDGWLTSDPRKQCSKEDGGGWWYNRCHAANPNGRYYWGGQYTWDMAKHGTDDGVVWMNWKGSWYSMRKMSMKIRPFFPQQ
Sequence of ORF 73 (O40947 whole entry): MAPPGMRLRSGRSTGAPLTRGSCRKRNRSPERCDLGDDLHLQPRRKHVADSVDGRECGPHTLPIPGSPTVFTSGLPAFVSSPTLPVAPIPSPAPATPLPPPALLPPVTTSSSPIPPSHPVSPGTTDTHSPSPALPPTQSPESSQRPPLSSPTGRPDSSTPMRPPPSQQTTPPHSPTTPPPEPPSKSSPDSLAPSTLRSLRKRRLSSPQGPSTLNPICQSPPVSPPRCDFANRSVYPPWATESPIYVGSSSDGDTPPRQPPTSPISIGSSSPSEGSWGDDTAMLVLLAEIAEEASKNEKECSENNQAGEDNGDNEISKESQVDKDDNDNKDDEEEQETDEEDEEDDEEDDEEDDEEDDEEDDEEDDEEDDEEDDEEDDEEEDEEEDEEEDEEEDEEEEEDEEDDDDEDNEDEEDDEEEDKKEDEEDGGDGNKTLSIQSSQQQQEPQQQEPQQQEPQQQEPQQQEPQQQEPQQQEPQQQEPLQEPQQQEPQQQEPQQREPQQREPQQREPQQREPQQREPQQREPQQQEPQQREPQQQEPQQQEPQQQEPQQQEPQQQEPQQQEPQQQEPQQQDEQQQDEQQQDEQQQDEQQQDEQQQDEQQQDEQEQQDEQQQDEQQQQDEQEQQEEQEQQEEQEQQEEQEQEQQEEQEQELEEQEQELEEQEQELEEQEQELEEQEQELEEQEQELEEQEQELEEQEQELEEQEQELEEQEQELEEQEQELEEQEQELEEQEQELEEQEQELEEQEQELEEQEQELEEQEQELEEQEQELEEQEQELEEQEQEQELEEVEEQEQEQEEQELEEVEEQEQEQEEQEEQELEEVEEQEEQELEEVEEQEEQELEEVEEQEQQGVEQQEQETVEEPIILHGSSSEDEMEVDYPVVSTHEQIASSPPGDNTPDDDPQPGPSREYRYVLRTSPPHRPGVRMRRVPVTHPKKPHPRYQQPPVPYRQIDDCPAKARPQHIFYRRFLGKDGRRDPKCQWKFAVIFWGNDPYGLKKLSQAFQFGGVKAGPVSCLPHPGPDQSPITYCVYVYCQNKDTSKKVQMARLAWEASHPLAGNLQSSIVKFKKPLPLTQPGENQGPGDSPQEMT
Sequence of Scavenger receptor class B member 1 (Q61009 whole entry): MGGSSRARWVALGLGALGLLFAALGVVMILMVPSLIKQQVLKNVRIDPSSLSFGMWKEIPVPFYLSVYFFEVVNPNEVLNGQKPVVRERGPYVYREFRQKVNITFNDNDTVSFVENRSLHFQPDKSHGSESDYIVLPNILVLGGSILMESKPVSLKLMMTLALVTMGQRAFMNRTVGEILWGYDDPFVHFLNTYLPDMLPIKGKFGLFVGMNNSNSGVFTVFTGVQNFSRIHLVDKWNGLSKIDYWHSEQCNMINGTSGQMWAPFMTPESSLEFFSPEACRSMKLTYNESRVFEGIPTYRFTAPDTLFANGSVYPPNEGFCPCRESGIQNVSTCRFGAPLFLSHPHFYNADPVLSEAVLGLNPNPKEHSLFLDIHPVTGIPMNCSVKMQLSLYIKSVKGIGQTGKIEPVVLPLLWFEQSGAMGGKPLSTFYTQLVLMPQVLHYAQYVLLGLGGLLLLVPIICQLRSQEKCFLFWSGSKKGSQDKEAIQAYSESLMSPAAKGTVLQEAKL
Sequence of Keap1/Nrf2 (Q16236 whole entry): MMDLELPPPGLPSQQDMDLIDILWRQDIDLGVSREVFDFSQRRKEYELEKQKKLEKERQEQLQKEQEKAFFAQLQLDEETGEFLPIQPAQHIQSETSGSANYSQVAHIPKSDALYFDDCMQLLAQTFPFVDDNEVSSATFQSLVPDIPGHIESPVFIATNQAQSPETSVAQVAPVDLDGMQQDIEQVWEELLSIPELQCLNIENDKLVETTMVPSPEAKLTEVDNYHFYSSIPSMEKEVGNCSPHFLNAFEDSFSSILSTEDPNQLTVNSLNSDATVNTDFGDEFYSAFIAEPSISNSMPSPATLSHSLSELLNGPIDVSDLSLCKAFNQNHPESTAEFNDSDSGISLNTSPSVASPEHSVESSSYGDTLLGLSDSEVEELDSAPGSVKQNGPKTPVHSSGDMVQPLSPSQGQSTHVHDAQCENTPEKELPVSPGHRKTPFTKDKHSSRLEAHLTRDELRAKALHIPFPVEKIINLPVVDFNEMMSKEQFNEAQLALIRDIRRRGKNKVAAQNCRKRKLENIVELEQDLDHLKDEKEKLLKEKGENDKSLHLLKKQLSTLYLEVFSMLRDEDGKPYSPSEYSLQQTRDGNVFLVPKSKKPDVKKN
Sequence of Keap1/Nrf2 (Q14145 whole entry): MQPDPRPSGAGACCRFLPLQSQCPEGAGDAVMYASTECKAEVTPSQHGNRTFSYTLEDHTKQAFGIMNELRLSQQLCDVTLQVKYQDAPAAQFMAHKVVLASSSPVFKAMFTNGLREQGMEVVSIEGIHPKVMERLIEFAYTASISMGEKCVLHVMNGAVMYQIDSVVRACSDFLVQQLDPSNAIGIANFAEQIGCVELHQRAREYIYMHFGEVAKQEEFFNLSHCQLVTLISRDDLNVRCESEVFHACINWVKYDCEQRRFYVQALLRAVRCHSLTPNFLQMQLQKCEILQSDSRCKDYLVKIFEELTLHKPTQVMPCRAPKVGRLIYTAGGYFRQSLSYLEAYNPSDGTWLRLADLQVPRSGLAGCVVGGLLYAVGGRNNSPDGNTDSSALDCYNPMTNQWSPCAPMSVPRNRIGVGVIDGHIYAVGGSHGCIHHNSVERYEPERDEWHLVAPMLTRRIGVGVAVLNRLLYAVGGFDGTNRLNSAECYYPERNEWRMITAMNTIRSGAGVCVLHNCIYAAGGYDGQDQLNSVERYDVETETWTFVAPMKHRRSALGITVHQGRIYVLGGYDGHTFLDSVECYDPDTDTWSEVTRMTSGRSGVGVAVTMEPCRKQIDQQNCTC

COC(=O)c1cn(C(=O)c2cccc3ccccc23)c2ccccc12
AC50 [1]: 25.1 µM (active)

Cc1cc2nnc(SCC(=O)Nc3cc(S(=O)(=O)N4CCOCC4)ccc3Cl)n2c2ccccc12
IC50 (Hexokinase HKDC1 [2]): 3.16 µM (active)
IC50 (Hexokinase-1): 3.76 µM (active)
IC50 (Hexokinase HKDC1 [3]): 3.39 µM (active)

N#CC1=C(N)Oc2ccc3ccc(O)cc3c2C1c1ccsc1 (stereo not given)
AC50 [4]: 8.56 µM (active)
AC50 [5]: 52.3 µM (active)
EC50 [6]: 15.4 µM (active)
IC50 (Fibrinogen beta chain [7]): 8.51 µM (active)
IC50 (Fibrinogen beta chain [8]): > 83.3 µM (inactive)
EC50 [9]: 76.1 µM (inconclusive)
EC50 [10]: 11 µM (inconclusive)
EC50 (Troponin, cardiac muscle): 18.8 µM (inactive)
AC50 (Keap1/Nrf2): > 52 µM (inactive)
AC50 (ORF 73): 51.6 µM (active)
EC50 [11]: 10.4 µM (active)
